Assay results: patent EP4772164A1, “CERAMIDE MIXTURE FOR IMPROVING COMPATIBILITY” (Amorepacific Corporation, priority 2023, dated 2025)

Assays:
Format in all cases: physicochemical
[1] = Ceramide compatibility by differential scanning calorimetry (DSC): melting enthalpy and compatibility ratio; conditions: for Peak area / Melting enthalpy: DSC; for Compatibility ratio 104+NPS / Compatibility ratio 104+NPO: from total melting enthalpy; for Compatibility ratio 104+NPS / Enthalpy (J/g) NPS / Compatibility ratio 104+NPO / Enthalpy (J/g) NPO: by 104 Ratio; for Ratio: measured peak area / calculated theoretical value, PC-104 and NPS; for Enthalpy (J/g) NPS / Enthalpy (J/g) NPO: total melting enthalpy of mixed ceramides; for Enthalpy (J/g) NPS: 104 with NPS; for Melting enthalpy: total melting enthalpy of single unmixed ceramide; for Enthalpy (J/g) NPO: 104 with NPO
Procedure: Ceramide compatibility was evaluated through measurement of differential scanning calorimetry (DSC). It is known that a ceramide compatibility study through DSC measurement may be utilized when measurement is not performed by polythermal and isothermal methods, or when slurry density of a solution is high, but has almost never been utilized in a ceramide study. In prediction of solubility of indomethacin (IMC) in polymers such as hydroxypropyl methylcellulose (HPMC) and polyvinylpyrrolidone (PVP), it was also confirmed that solubility prediction of a DSC method is excellent in a combination of IMC and HPMC. Since confirming compatibility between ceramides is a situation of confirming solubility when two solid-phase substances are mixed, a DSC experiment is determined to be very suitable, and thus the present inventors confirmed compatibility by measuring enthalpy of each ceramide, predicting enthalpy of a binary mixture, and actually measuring the same. For DSC measurement, a Thermal Analysis System (differential scanning calorimetry) such as Discovery DSC 250 of TA Instruments was used. In a DSC graph, melting enthalpy was measured by obtaining a peak area, and a unit of the peak area was J/g. A compatibility ratio was calculated by comparing a peak area measurement result of a sample in which ceramides are mixed and a calculated theoretical value (calculated sum area). A compatibility ratio is a ratio indicating compatibility when two components are mixed, and may be used to evaluate whether two components are stable even when mixed and may maintain desired characteristics.. […]
A single sample in which PC-104 and ceramide NP are unmixed (10:0 or 0:10), and samples in which PC-104 and ceramide NP are mixed at ratios such as 1:9 to 9.99:0.01, were each made, a DSC peak area was measured, and an actually measured DSC peak area and a calculated theoretical value according to a ratio of PC-104 and ceramide NP were compared. For compatibility evaluation, a ceramide mixing ratio having a low compatibility ratio was confirmed.

[2] = Solubility of ceramide or ceramide mixture in pure ethanol (94.5% or more)
Excerpt: Through Example 1, an effect of improvement of compatibility according to ceramide mixing confirmed through DSC measurement was confirmed. Accordingly, an effect of improvement of solubility was additionally confirmed. Specifically, solubility was confirmed as to how well the ceramide or the ceramide mixture dissolves in pure ethanol (94.5% or more).

[3] = Ceramide compatibility by differential scanning calorimetry (DSC): melting enthalpy and compatibility ratio; conditions: for Ratio: measured peak area / calculated theoretical value
[4] = PC-104 and NPS at stated weight mixing ratio
[5] = PC-104 and NPO at stated weight mixing ratio

| Peak area [1, 4] | Compatibility ratio 104+NPS [1] | Ratio [1] | Enthalpy (J/g) NPS [1] | Melting enthalpy [1] | Peak area [1, 5] | Compatibility ratio 104+NPO [1] | Enthalpy (J/g) NPO [1] | EtOH solubility (mg/uL) [2] | Peak area ([3]; DSC, PC-104 and NPM at stated weight mixing ratio) | DSC enthalpy (J/g) of corresponding composition ([3]; PC-104 and NPM compositions of the solubility test) | Calculated sum area ([3]; calculated theoretical value from the two unmixed ceramides, PC-104 and NPM) | Compatibility ratio 104+NPM ([3]; from total melting enthalpy, by 104 Ratio) | Ratio ([3]; PC-104 and NPM) | Ratio ([3]; PC-104 and NPO) | Enthalpy (J/g) NPM ([3]; total melting enthalpy of mixed ceramides, 104 with NPM, by 104 Ratio) | Compound |
| --- | --- | --- | --- | --- | --- | --- | --- | --- | --- | --- | --- | --- | --- | --- | --- | --- |
| 114.6 J/g | 1.00 | 1.00 | 114.6 J/g | 114.6 J/g | – | – | – | – | – | – | – | – | – | – | – | CCCCCCCCCCCCCCCCCC(=O)NC(CO)C(O)C(O)CCCCCCCCCCCCCC (centres unmarked) [NPS, CERAMIDE NP(stearic acid)] |
| 151.6 J/g | 1.00 | 1.00 | 151.6 J/g | 151.6 J/g | 151.6 J/g | 1.00 | 151.6 J/g | about 0.04636 mg/uL | 151.6 J/g | 151.6 J/g | 151.6 J/g | 1.00 | 1.00 | 1.00 | 151.6 J/g | CCCCCCCCCCCCCCCC(=O)N(CCO)CC(O)CN(CCO)C(=O)CCCCCCCCCCCCCCC [PC-104, HYDROXYPROPYL BISPALMITAMIDE MEA] |
| – | – | – | – | 89.0 J/g | 89.0 J/g | 1.00 | 89.0 J/g | – | – | – | – | – | – | 1.00 | – | CCCCCCCC/C=C\CCCCCCCC(=O)N[C@@H](CO)[C@H](O)[C@H](O)CCCCCCCCCCCCCC [NPO, CERAMIDE NP(oleic acid)] |
